# According to patent US20040009486A1, “Compositions and methods utilizing DNA polymerases” (priority 1999, published 2004):
# Read-outs that look alike come from different tables or passages of the source.
# Columns and labels:
# [1] = test system: primer:template; assay: Fidelity screen with rhodamine labeled non-complementary ddNTP; assay type: biochemical; details: R110-labeled incorrect ddNTP
# Description: Reactions (10 μl) contained 1 unit of enzyme in 1× reaction buffer, 15 nM primer template, 25 nM of unlabeled complementary ddNTP, and 25, 100, 500, or 1000 nM of rhodamine labeled non-complementary ddNTP in four separate reactions. The reactions were incubated in a Perkin-Elmer 9600 for 25 cycles as follows: 96° C. for 10 s, 50° C. for 5 s, and 60° C. for 30 s. The reactions were then quenched with ice-cold 0.2 M EDTA (final concentration) and the products were purified from unincorporated rhodamine labeled ddNTPs and analyzed as described above.
# Fidelity was determined as the tendency of a DNA polymerase to incorporate the correct nucleotide in the presence of increasing amounts of a non-complementary nucleotide. These assays employed constant amounts of primer:template, an unlabeled complementary ddNTP and DNA polymerase, and various concentrations of a rhodamine-labeled non-complementary ddNTP, as described in the Experimental Protocol. The amount of misextended primers is plotted against the ratio of rhodamine-labeled incorrect ddNTP/unlabeled correct ddNTP (FIG. 18 panels A and B). We performed similar assays for all possible mispairs (Table IX).
# To address these concerns, the insertion fidelity of the JDF-3 P410L/A485T and Taq F667Y mutants was compared. In the first set of fidelity assays, a constant amount of primer:template, an unlabeled complementary ddNTP, and increasing concentrations of R110-labeled non-complementary ddNTP was used (Materials and Methods). […] The amount of misextended primers was determined and plotted against the ratio of R110-labeled incorrect ddNTP/unlabeled correct ddNTP (FIG. 27, panels A and B). Similar assays for all 12 possible mispairs was performed (ddG:dT, ddT:dG, ddT:dC, ddC:dT, ddC:dA, ddA:dC, ddA:dG, ddG:dA, ddT:dT, ddC:dC, ddA:dA, ddG:dG). […] The other mispairs are formed less frequently, and at similar rates for the JDF-3 P410L/A485T and Taq F667Y mutants (data not shown).
# Fidelity assays using labeled ddNTPs (10 μl) contained 1 unit DNA polymerase in 1× reaction buffer, 15 nM primer: template, 25 nM of unlabeled complementary ddNTP, and 25, 100, 500, or 1000 nM of rhodamine-labeled non-complementary ddNTP in four separate reactions. The reactions were incubated in a Perkin-Elmer 9600 for 25 cycles as follows: 96° C. for 10 s, 50° C. for 5 s, and 60° C. for 30 s. The reactions were quenched and analyzed as above.
# [2] = test system: pBL25C and Temp-A, Temp-T, Temp-C, or Temp-G; assay: Rhodamine labeled ddNTP incorporation, TAMRA- and R110-ddNTPs (FIG. 16); assay type: biochemical
# Description: These experiments were performed using 1 unit of enzyme, 15 nM primer:template (pBL25C and Temp-A, Temp-T, Temp-C, or Temp-G in four separate reactions), and 50 nM dye-ddNTP (TAMRA- or R110-labeled). The reactions were incubated at 60° C. for 10 minutes and then quenched with ice-cold 0.2 M EDTA (final concentration). The products were purified from unincorporated dye-labeled ddNTPs and analyzed as described above.
# Relative incorporation of rhodamine labeled-ddNTPs by the JDF-3 P410L/A485T and Taq F667Y mutants was determined. We used both TAMRA- and R 110-labeled ddNTPs, and the amount of incorporated dye-ddNTPs was measured in fluorescense units. These experiments were performed using pBL25C as the primer, and Temp-A, Temp-T, Temp-C, or Temp-G as the complementary template in four separate reactions. The only difference between these four primer:template systems is the SNP site, thereby eliminating the possibility that primer:template sequence has an effect on dye-ddNTP incorporation. […] Gardner and Jack had also observed variation in the incorporation of ribonucleotides by the A488L mutant (equivalent to JDF-3 A485) of Vent DNA polymerase (from archaeon Thermococcus litoralis)^15.
# We performed similar rhodamine labeled-ddNTP incorporation experiments using the same number of units of Taq F667Y.
# [3] = test system: pBL34A:pBluescript II; assay: Kinetics of TAMRA-ddATP insertion versus TAMRA-ddGTP misinsertion opposite dT; assay type: biochemical
# Description: To determine the kinetics of misinsertion, the steady state Michaelis-Menten Km and Vmax parameters were calculated by incubations of limiting amounts of enzyme (0.1 units or 5 nM) in presence of 50 nM primer:template and varying concentrations of non-complementary rhodamine labeled ddNTP (1 nM to 10,000 nM) for 10 minutes at 60° C. Analysis and quantitations were performed as above.
# To gain more insight into the mechanism of lower fidelity, we determined the misinsertion frequency for the mispair ddG:dT, which was evaluated in terms of relative Km and Vmax values for the wrong versus correct dye-ddNTP. Efficiency of nucleotide misinsertion was determined opposite a DNA template dT, primed with a 34-nucleotide oligomer (pBL34A). Apparent Michaelis constant (Km) and maximum velocity (Vmax) and relative insertion frequencies were measured for ddATP and ddGTP (Table X).
# To determine the kinetics of misinsertion, Km and Vmax values were calculated by incubating limiting amounts of enzyme (0.1 units, 5 nM) in presence of 50 nM primer:template (pBL34A:pBluescript II) and varying concentrations of non-complementary rhodamine-ddGTP (1-10,000 nM) for 10 minutes at 60° C. Analysis and quantitation were performed as above.
# [4] = literature values; cited from earlier work
substance,measurement,setting,value
"Taq F667Y: ThermoSequenase, Taq F667Y mutant DNA polymerase from Amersham Pharmacia Biotech","ddG:dT mispair formation frequency, higher than JDF-3 P410L/A485T",[1],20 fold
same,"ddT:dC mispair formation frequency, higher than JDF-3 P410L/A485T",[1],3 fold
same,preference order of ddNTP bases,[2],G>C>A>T
same,"Km for wrong nucleotide (ddGTP) opposite dT, lower than JDF-3 P410L/A485T",[3],7 fold
same,"misinsertion frequency for ddG:dT, higher than JDF-3 P410L/A485T",[3],~17 fold
same,M.F. (M.E./I.E.) misinsertion frequency,[3]; ddG:dT mispair,0.053
same,"misinsertion frequency for ddG:dT, higher than JDF-3 P410L/A485T",[3]; listed as Taq F667Y mutant,approximately 17 fold
same,"I.E. Vmax, TAMRA-ddATP insertion","[3]; opposite dT, pBL34A primer",1.9
same,"M.E. Vmax, TAMRA-ddGTP misinsertion","[3]; opposite dT, pBL34A primer",16.9
same,Km,"[3]; opposite dT, pBL34A primer, read-out: I.E. Km, TAMRA-ddATP insertion",0.0006 µM
same,Km,"[3]; opposite dT, pBL34A primer, read-out: M.E. Km, TAMRA-ddGTP misinsertion",0.1 µM
same,dideoxynucleotide incorporation relative to unmutated / wild type enzyme,[4],3000-8000 fold
